Like-named read-outs stand apart in the source and are kept apart here.
What was measured:
[1] = biological target: PSMA; parameters: method as in PMID 25883127; settings: cited from earlier work
[2] = Plasma stability (ex vivo) and protein binding in mouse serum/plasma; assay type: in vitro ADME; settings: incubation of free 64Cu(OAc)2 in mouse plasma
Description: Plasma stability studies were carried out by incubating ^64Cu-DOTHA2-PSMA (50 MBq in 250 μL PBS buffer) in 250 μL of mouse serum at 37 °C for up to 24 h. The plasma was then mixed twice with ethanol (1:1) to precipitate all the proteins. The samples were subjected to vortex mixing for 1 min and then centrifugation for 10 min at 7000 rpm. Plasma proteins were separated from the soluble component by ultracentrifugation and the radioactivity was assessed. The supernatant fraction was assayed by radio-TLC on C18 plates and by UPLC; free ^64Cu(OAc)2 and ^64Cu-DOTHA2-PSMA were used as standards. The radio-TLCs were eluted with 0.1 M sodium citrate buffer at pH 5.5 using an Instant Imager system (BioScan, DC, U.S.A.) for radiodetection. The precipitated proteins were again subjected to 10% TFA, vortexed for 2–3 min, and then centrifuged for 10 min at 7000 rpm. The separation and analysis for the supernatant and the proteins were performed in the same manner.
The protein binding ability was evaluated by incubating ^64Cu-DOTHA2-PSMA (100 MBq) in phosphate buffer (250 μL, pH 7) at 37 °C and fresh mouse serum (250 μL) and for 1 h, 4 h, and 24 h. Plasma proteins were precipitated by the addition of ethanol (1:1, v/v) to the plasma samples, followed by centrifugation at 7000 rpm for 5 min at room temperature and separation of the supernatant. This process was repeated three times with the same volume of ethanol, and the supernatants were pooled. The radioactivity content of the supernatant and the precipitated protein were measured in a dose calibrator to obtain the protein binding percentage.

[3] = cited from earlier work
[4] = parameters: method as in PMID 29088775, doi:10.1515/ract-2016-2632; settings: cited from earlier work
[5] = tested on: LNCaP cells; assay: Cellular efflux assay; assay type: cell-based, human; settings: 1h incubation
Description: Here, 12-well polylysine-coated Cellbind plates were seeded with 150 × 10^3 LNCaP cells with 1.75 mL of cell media. At 70–100% confluence (3 days of growth), the cell medium was changed and 37 kBq of ^64Cu-DOTHA2-PSMA in 1 mL of cell medium was added to each well of group 1 and 160 kBq to each of group 2.
For efflux assays, after adding ^64Cu-DOTHA2-PSMA, cells were incubated for 60 min for the time points 15 min to 4 h (group 1) and incubated for 4 h for the time points 4 h to 48 h (group 2). After incubation, the medium was removed, cells were washed with 1 mL of cold PBS, 1 mL of cell media was added and, similarly to uptake and internalization, cells were again incubated in nonradioactive media for 0, 15, 30, 45, 60 min, 2 h, 4 h (group 1) and 4 h, 8 h, 24 h, 32 h or 48 h (group 2) (3 wells per time point). After respective incubation times per well, the medium was removed, and cells were washed with 1 mL of cold PBS, then removed from the well with 1 mL of trypsin to measure the residual radioactivity by gamma counter. The results of residual activity were expressed as percentage of the 1 h (Group 1) or 4 h (Group 2) uptake activity (0 min of efflux time-point) as a function of time for 10^6 cells.
All the assays were performed at least 3 times, each with different ^64Cu-DOTHA2-PSMA production and cell passage. Cells were counted in 3 wells for each protocol (uptake, internalization, and efflux) on day 1 and day 3 of each experiment and an average for cells numbers at day 2.

[6] = Balb/c mice biodistribution; assay type: in vivo; settings: 2 h p.i.
Description: ^64Cu-DOTHA2-PSMA biodistribution was assessed in balb/c mice (n = 30) by harvesting blood and organs at 1 h, 2 h, 4 h, 24 h, and 48 h p.i. to measure tissue radioactivity and weight. Results were reported as the %IA/g of tissue and compared with the radiotracer used for clinical imaging in our facility, ^68Ga-PSMA-617.
Balb/c mice (n = 30) were injected with a bolus of ^64Cu-DOTHA2-PSMA by the tail vein (in 0.3 mL of saline: 3 MBq for 1 h, 2 h, and 4 h p.i., 7.5 MBq for 24 h p.i. and 21 MBq for 48 h p.i.). Injected activity had to be increased for later time points to ensure reliable detection and reliability in organs with a low uptake, e.g., the brain. At all timepoints, blood was collected using a heparin-coated syringe by femoral vein puncture and mice were then euthanized and dissected. Harvested tissues were rinsed, blotted dry, and then weighted and counted in gamma counter. The results are reported as the %IA per gram of tissue. The biodistribution results were compared with the ^68Ga-PSMA-617 results obtained by our team at 1 h and 2 h p.i.

[7] = biological target: T1, PSMA on the LNCaP human prostate cell line (Homo sapiens, UniProt Q04609); assay: Cellular competition assay; assay type: binding
T1 construct: Human prostate adenocarcinoma LNCaP PSMA-expressing cells were purchased from American Type Culture Collection; host or cells: LNCaP human prostate adenocarcinoma cells
T1 sequence (Q04609 whole entry): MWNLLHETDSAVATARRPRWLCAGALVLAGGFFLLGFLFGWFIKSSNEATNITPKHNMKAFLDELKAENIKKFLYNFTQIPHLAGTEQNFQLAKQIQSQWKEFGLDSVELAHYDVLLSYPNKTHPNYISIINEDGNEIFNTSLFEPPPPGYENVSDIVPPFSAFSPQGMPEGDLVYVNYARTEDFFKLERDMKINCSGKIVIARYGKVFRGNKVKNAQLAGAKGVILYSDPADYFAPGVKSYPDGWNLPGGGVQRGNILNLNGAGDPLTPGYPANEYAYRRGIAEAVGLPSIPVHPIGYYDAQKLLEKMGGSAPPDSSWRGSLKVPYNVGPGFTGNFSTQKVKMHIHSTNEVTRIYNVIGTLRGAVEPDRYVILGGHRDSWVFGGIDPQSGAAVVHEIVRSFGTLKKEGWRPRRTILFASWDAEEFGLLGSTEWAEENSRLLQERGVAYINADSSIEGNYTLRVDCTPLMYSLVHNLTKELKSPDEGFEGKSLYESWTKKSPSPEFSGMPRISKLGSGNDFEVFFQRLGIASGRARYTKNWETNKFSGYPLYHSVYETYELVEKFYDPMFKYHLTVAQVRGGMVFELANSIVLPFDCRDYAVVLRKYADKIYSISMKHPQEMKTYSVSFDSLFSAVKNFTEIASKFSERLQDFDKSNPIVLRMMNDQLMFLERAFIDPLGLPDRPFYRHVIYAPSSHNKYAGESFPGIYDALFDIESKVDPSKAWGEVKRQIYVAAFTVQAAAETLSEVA
Description: Here, 12-well polylysine-coated Cellbind plates were seeded with 150 × 10^3 LNCaP cells. […] […] Cells were then incubated for 1 h, after which the medium was removed, cells were washed once with 1 mL of cold PBS, and then 1 mL of trypsin was added to collect cells for radioactivity measurement by gamma-counter. The assays were performed in triplicate, each time with independent ^64Cu-DOTHA2-PSMA production and cell seedings. IC50 was calculated using GraphPad Prism 9 one site fit logIC50.

O=C(O)CC[C@H](NC(=O)N[C@@H](CCCCNC(=O)[C@H](Cc1ccc2ccccc2c1)NC(=O)[C@H]1CC[C@H](CNC(=O)CN2CCN(CC(=O)O)CCN(CC(=O)O)CCN(CC(=O)O)CC2)CC1)C(=O)O)C(=O)O [PSMA-617]
Ki [1]: 2.34 ± 2.94 nM

CC(=O)[O-].CC(=O)[O-].[64Cu+2] [^64Cu(OAc)2]
proportion of the signal bound to plasma proteins [2]: greater than 90%

O=C([O-])CN1CCN(CC(=O)[O-])CCN(CC(=O)NCC2CCC(C(=O)NC(Cc3ccc4ccccc4c3)C(=O)NCCCCC(NC(=O)NC(CCC(=O)O)C(=O)O)C(=O)O)CC2)CCN(CC(=O)O)CC1.[64Cu+2] (centres unmarked) [^64Cu-PSMA-617]
signal corresponding to the intact product in blood ([3]; 2 h p.i.): 20% | signal corresponding to the intact product in liver ([3]; 2 h p.i.): 28% | signal corresponding to the intact product in urine ([3]; 2 h p.i.): 5.2% | signal corresponding to the intact product in serum ([3]; after 5 min): 71% | log D [4]: −1.93 ± 0.13

O=C(O)CCC(NC(=O)NC(CCCCNC(=O)C(Cc1ccc2ccccc2c1)NC(=O)C1CCC(CNC(=O)CN2CCN(CC(=O)O)CCN(CC(=O)O)CCN(CC(=O)O)CC2)CC1)C(=O)O)C(=O)O.[68Ga] (centres unmarked) [^68Ga-PSMA-617, reference compound]
Retained activity normalized to time 0 ([5]; efflux time 0.25 h): 101.57% | Retained activity normalized to time 0 ([5]; efflux time 0.50 h): 106.07% | Retained activity normalized to time 0 ([5]; efflux time 0.75 h): 97.22% | Retained activity normalized to time 0 ([5]; efflux time 1 h): 84.75% | Retained activity normalized to time 0 ([5]; efflux time 2 h): 81.62% | liver uptake [6]: 0.67 ± 0.16 % IA/g | log D [4]: −1.98

CN([O-])C(=O)CN1CCN(CC(=O)NCC2CCC(C(=O)NC(Cc3ccc4ccccc4c3)C(=O)NCCCCC(NC(=O)NC(CCC(=O)O)C(=O)O)C(=O)O)CC2)CCN(CC(=O)N(C)[O-])CCN(CC(=O)N(C)O)CC1.[Cu+2] (centres unmarked) [^natCu-DOTHA2-PSMA]
IC50 ([7]; in competition with 64Cu-DOTHA2-PSMA, 1 h, reaction medium with 20 g/L BSA, read-out: IC50 on LNCaP): 11.3 ± 14.3 nM | IC50 ([7]; with 10% BSA in RPMI, read-out: IC50): 21.4 nM | IC50 ([7]; with RPMI only, read-out: IC50): 9.08 nM
